PubChem BioAssay (NCI)
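1) Cells in 96-well plates. 2) Compound, 48 h, 5 concentrations. 3) Linear interpolation between surrounding doses. 4) Unreached endpoint = highest concentration. TGI marks complete inhibition of growth.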

What was measured:
Test in all cases: NCI-60 cell line screen, 48 h
LOX IMVI melanoma = test system: LOX IMVI melanoma
SNB-19 CNS = test system: SNB-19 CNS
DU-145 prostate = test system: DU-145 prostate
NCI-H23 lung = test system: NCI-H23 lung
SF-268 CNS = test system: SF-268 CNS
PC-3 prostate = test system: PC-3 prostate
IGROV1 ovarian = test system: IGROV1 ovarian
HCC-2998 colon = test system: HCC-2998 colon
U251 CNS = test system: U251 CNS
SW-620 colon = test system: SW-620 colon
SK-MEL-28 melanoma = test system: SK-MEL-28 melanoma
786-0 renal = test system: 786-0 renal
MDA-N = test system: MDA-N
A498 renal = test system: A498 renal
ACHN renal = test system: ACHN renal
RPMI-8226 leukemia = test system: RPMI-8226 leukemia
SN12C renal = test system: SN12C renal
SR leukemia = test system: SR leukemia
UACC-257 melanoma = test system: UACC-257 melanoma
SK-MEL-5 melanoma = test system: SK-MEL-5 melanoma
A549 NSCLC = test system: A549 NSCLC
NCI-H460 lung = test system: NCI-H460 lung
SF-295 CNS = test system: SF-295 CNS
M14 melanoma = test system: M14 melanoma
MOLT-4 leukemia = test system: MOLT-4 leukemia
RXF 393 renal = test system: RXF 393 renal
UACC-62 melanoma = test system: UACC-62 melanoma
EKVX NSCLC = test system: EKVX NSCLC
COLO 205 colon = test system: COLO 205 colon
HS 578T breast = test system: HS 578T breast
HCT-15 colon = test system: HCT-15 colon
UO-31 renal = test system: UO-31 renal
OVCAR-4 ovarian = test system: OVCAR-4 ovarian
CAKI-1 renal = test system: CAKI-1 renal
HCT-116 colon = test system: HCT-116 colon
CCRF-CEM leukemia = test system: CCRF-CEM leukemia
KM12 colon = test system: KM12 colon
MDA-MB-435 = test system: MDA-MB-435
K-562 leukemia = test system: K-562 leukemia
NCI-H226 lung = test system: NCI-H226 lung
SF-539 CNS = test system: SF-539 CNS
TK-10 renal = test system: TK-10 renal
NCI/ADR-RES ovarian = test system: NCI/ADR-RES ovarian
MALME-3M melanoma = test system: MALME-3M melanoma
HT29 colon = test system: HT29 colon
HOP-92 NSCLC = test system: HOP-92 NSCLC
MCF7 breast = test system: MCF7 breast
NCI-H522 lung = test system: NCI-H522 lung
OVCAR-3 ovarian = test system: OVCAR-3 ovarian
T-47D breast = test system: T-47D breast
SNB-75 CNS = test system: SNB-75 CNS
OVCAR-8 ovarian = test system: OVCAR-8 ovarian
MDA-MB-231 breast = test system: MDA-MB-231 breast
HOP-62 NSCLC = test system: HOP-62 NSCLC
BT-549 breast = test system: BT-549 breast
HL-60(TB) leukemia = test system: HL-60(TB) leukemia
SK-OV-3 ovarian = test system: SK-OV-3 ovarian
OVCAR-5 ovarian = test system: OVCAR-5 ovarian
SK-MEL-2 melanoma = test system: SK-MEL-2 melanoma

O=c1c(Nc2ccccc2)cn(CCOc2ccc(Cl)cc2)c(=O)n1CCOc1ccc(Cl)cc1
TGI (LOX IMVI melanoma): > 100 µM | TGI (SNB-19 CNS): > 100 µM | TGI (DU-145 prostate): > 100 µM | TGI (NCI-H23 lung): > 100 µM | TGI (SF-268 CNS): > 100 µM | TGI (PC-3 prostate): > 100 µM | TGI (IGROV1 ovarian): > 100 µM | TGI (HCC-2998 colon): > 100 µM | TGI (U251 CNS): > 100 µM | TGI (SW-620 colon): > 100 µM | TGI (SK-MEL-28 melanoma): > 100 µM | TGI (786-0 renal): > 100 µM | TGI (MDA-N): > 100 µM | TGI (A498 renal): > 100 µM | TGI (ACHN renal): > 100 µM | TGI (RPMI-8226 leukemia): > 100 µM | TGI (SN12C renal): > 100 µM | TGI (SR leukemia): > 100 µM | TGI (UACC-257 melanoma): > 100 µM | TGI (SK-MEL-5 melanoma): > 100 µM | TGI (A549 NSCLC): > 100 µM | TGI (NCI-H460 lung): > 100 µM | TGI (SF-295 CNS): > 100 µM | TGI (M14 melanoma): > 100 µM | TGI (MOLT-4 leukemia): > 100 µM | TGI (RXF 393 renal): > 100 µM | TGI (UACC-62 melanoma): > 100 µM | TGI (EKVX NSCLC): > 100 µM | TGI (COLO 205 colon): > 100 µM | TGI (HS 578T breast): > 100 µM | TGI (HCT-15 colon): > 100 µM | TGI (UO-31 renal): > 100 µM | TGI (OVCAR-4 ovarian): > 100 µM | TGI (CAKI-1 renal): > 100 µM | TGI (HCT-116 colon): > 100 µM | TGI (CCRF-CEM leukemia): > 100 µM | TGI (KM12 colon): > 100 µM | TGI (MDA-MB-435): > 100 µM | TGI (K-562 leukemia): > 100 µM

c1ccc2[nH]c3c(N=NC4=NCCN4)c4ccccc4c-3nc2c1
TGI (NCI-H226 lung): 23.7 µM | TGI (SNB-19 CNS): 68.9 µM | TGI (DU-145 prostate): > 100 µM | TGI (SF-539 CNS): 20.2 µM | TGI (NCI-H23 lung): 23.3 µM | TGI (SF-268 CNS): > 100 µM | TGI (IGROV1 ovarian): > 100 µM | TGI (HCC-2998 colon): 14.9 µM | TGI (U251 CNS): 19.7 µM | TGI (TK-10 renal): 66.6 µM | TGI (SW-620 colon): 13.6 µM | TGI (SK-MEL-28 melanoma): 27.2 µM | TGI (786-0 renal): 22.4 µM | TGI (MDA-N): 20.7 µM | TGI (NCI/ADR-RES ovarian): 20.1 µM | TGI (ACHN renal): > 100 µM | TGI (SN12C renal): > 100 µM | TGI (MALME-3M melanoma): 24.1 µM | TGI (SR leukemia): > 100 µM | TGI (HT29 colon): 2.7 µM | TGI (HOP-92 NSCLC): 20.4 µM | TGI (UACC-257 melanoma): 36.5 µM | TGI (SK-MEL-5 melanoma): 15.9 µM | TGI (A549 NSCLC): 16.8 µM | TGI (MCF7 breast): 11.4 µM | TGI (NCI-H460 lung): 7.81 µM | TGI (NCI-H522 lung): 17.3 µM | TGI (SF-295 CNS): 12.2 µM | TGI (OVCAR-3 ovarian): 30.2 µM | TGI (M14 melanoma): 20.4 µM | TGI (MOLT-4 leukemia): > 100 µM | TGI (RXF 393 renal): 14.3 µM | TGI (UACC-62 melanoma): 21.1 µM | TGI (EKVX NSCLC): 33.3 µM | TGI (T-47D breast): > 100 µM | TGI (HS 578T breast): > 100 µM | TGI (SNB-75 CNS): 16.4 µM | TGI (OVCAR-8 ovarian): 9.39 µM | TGI (MDA-MB-231 breast): 32.4 µM | TGI (HCT-15 colon): 15.8 µM | TGI (HOP-62 NSCLC): 39.3 µM | TGI (OVCAR-4 ovarian): > 100 µM | TGI (BT-549 breast): 41.9 µM | TGI (HL-60(TB) leukemia): > 100 µM | TGI (HCT-116 colon): 13.4 µM | TGI (CCRF-CEM leukemia): > 100 µM | TGI (KM12 colon): 15.8 µM | TGI (MDA-MB-435): 21.8 µM | TGI (K-562 leukemia): > 100 µM

COC(=O)[C@@H]1[C@H](O)CCC2=C(CC(=O)c3ccoc3)[C@H](C)CC[C@]21C
TGI (NCI-H226 lung): > 50 µM | TGI (LOX IMVI melanoma): > 50 µM | TGI (SNB-19 CNS): > 50 µM | TGI (SF-539 CNS): > 50 µM | TGI (SK-OV-3 ovarian): > 50 µM | TGI (NCI-H23 lung): > 50 µM | TGI (PC-3 prostate): > 50 µM | TGI (IGROV1 ovarian): > 50 µM | TGI (HCC-2998 colon): > 50 µM | TGI (U251 CNS): > 50 µM | TGI (TK-10 renal): > 50 µM | TGI (SW-620 colon): > 50 µM | TGI (SK-MEL-28 melanoma): > 50 µM | TGI (786-0 renal): > 50 µM | TGI (MDA-N): > 50 µM | TGI (NCI/ADR-RES ovarian): > 50 µM | TGI (A498 renal): > 50 µM | TGI (ACHN renal): > 50 µM | TGI (SN12C renal): > 50 µM | TGI (MALME-3M melanoma): > 50 µM | TGI (HT29 colon): > 50 µM | TGI (HOP-92 NSCLC): > 50 µM | TGI (UACC-257 melanoma): > 50 µM | TGI (SK-MEL-5 melanoma): > 50 µM | TGI (A549 NSCLC): > 50 µM | TGI (MCF7 breast): > 50 µM | TGI (NCI-H460 lung): > 50 µM | TGI (OVCAR-5 ovarian): > 50 µM | TGI (SF-295 CNS): > 50 µM | TGI (OVCAR-3 ovarian): > 50 µM | TGI (M14 melanoma): > 50 µM | TGI (RXF 393 renal): > 50 µM | TGI (UACC-62 melanoma): > 50 µM | TGI (EKVX NSCLC): > 50 µM | TGI (COLO 205 colon): > 50 µM | TGI (HS 578T breast): > 50 µM | TGI (SNB-75 CNS): > 50 µM | TGI (OVCAR-8 ovarian): > 50 µM | TGI (MDA-MB-231 breast): > 50 µM | TGI (HCT-15 colon): > 50 µM | TGI (HOP-62 NSCLC): > 50 µM | TGI (UO-31 renal): > 50 µM | TGI (OVCAR-4 ovarian): > 50 µM | TGI (BT-549 breast): > 50 µM | TGI (CAKI-1 renal): > 50 µM | TGI (SK-MEL-2 melanoma): > 50 µM | TGI (HCT-116 colon): > 50 µM | TGI (KM12 colon): > 50 µM | TGI (K-562 leukemia): > 50 µM

COc1ccc(OC)c(NC2=NCCO2)c1
TGI (NCI-H226 lung): > 100 µM | TGI (LOX IMVI melanoma): > 100 µM | TGI (SNB-19 CNS): 22.7 µM | TGI (DU-145 prostate): > 100 µM | TGI (SF-539 CNS): > 100 µM | TGI (NCI-H23 lung): > 100 µM | TGI (SF-268 CNS): > 100 µM | TGI (PC-3 prostate): > 100 µM | TGI (IGROV1 ovarian): > 100 µM | TGI (HCC-2998 colon): > 100 µM | TGI (U251 CNS): > 100 µM | TGI (TK-10 renal): > 100 µM | TGI (SW-620 colon): 28.2 µM | TGI (SK-MEL-28 melanoma): > 100 µM | TGI (786-0 renal): > 100 µM | TGI (MDA-N): > 100 µM | TGI (NCI/ADR-RES ovarian): > 100 µM | TGI (A498 renal): > 100 µM | TGI (ACHN renal): > 100 µM | TGI (RPMI-8226 leukemia): > 100 µM | TGI (SN12C renal): > 100 µM | TGI (MALME-3M melanoma): > 100 µM | TGI (SR leukemia): > 100 µM | TGI (HT29 colon): > 100 µM | TGI (HOP-92 NSCLC): 77.4 µM | TGI (UACC-257 melanoma): > 100 µM | TGI (SK-MEL-5 melanoma): > 100 µM | TGI (A549 NSCLC): > 100 µM | TGI (MCF7 breast): > 100 µM | TGI (NCI-H460 lung): > 100 µM | TGI (OVCAR-5 ovarian): > 100 µM | TGI (NCI-H522 lung): > 100 µM | TGI (SF-295 CNS): > 100 µM | TGI (OVCAR-3 ovarian): > 100 µM | TGI (M14 melanoma): > 100 µM | TGI (MOLT-4 leukemia): > 100 µM | TGI (RXF 393 renal): > 100 µM | TGI (UACC-62 melanoma): > 100 µM | TGI (EKVX NSCLC): > 100 µM | TGI (T-47D breast): > 100 µM | TGI (COLO 205 colon): > 100 µM | TGI (HS 578T breast): > 100 µM | TGI (SNB-75 CNS): > 100 µM | TGI (OVCAR-8 ovarian): > 100 µM | TGI (MDA-MB-231 breast): > 100 µM | TGI (HCT-15 colon): > 100 µM | TGI (HOP-62 NSCLC): > 100 µM | TGI (UO-31 renal): > 100 µM | TGI (OVCAR-4 ovarian): > 100 µM | TGI (HL-60(TB) leukemia): > 100 µM | TGI (CAKI-1 renal): 28.8 µM | TGI (SK-MEL-2 melanoma): > 100 µM | TGI (HCT-116 colon): > 100 µM | TGI (CCRF-CEM leukemia): > 100 µM | TGI (KM12 colon): > 100 µM | TGI (MDA-MB-435): > 100 µM | TGI (K-562 leukemia): > 100 µM
